Measurements taken from ChEMBL document CHEMBL1201862, “PubChem BioAssay data set” (2004).
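How tested: cells in 96-well plates exposed to compound for 48 hours at five concentrations. GI50 is the concentration that inhibits growth by half.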 Activity calls are given as the source filed them. Rule as the data show it: active = GI50 up to about 1.1 µM and inactive = higher.

Assays:
Assay in all cases: NCI-60 cell line screen, 48 h
LOX IMVI = test system: LOX IMVI
PC-3 = test system: PC-3
NCI-H522 = test system: NCI-H522
SF-295 = test system: SF-295
U-251 = test system: U-251
SNB-19 = test system: SNB-19
OVCAR-8 = test system: OVCAR-8
CCRF-CEM = test system: CCRF-CEM
MOLT-4 = test system: MOLT-4
COLO 205 = test system: COLO 205
K562 = test system: K562
CAKI-1 = test system: CAKI-1
HOP-92 = test system: HOP-92
HCT-15 = test system: HCT-15
OVCAR-3 = test system: OVCAR-3
HL-60 = test system: HL-60
SR = test system: SR
Hs-578T = test system: Hs-578T
NCI-H226 = test system: NCI-H226
UACC-62 = test system: UACC-62

Row | Structure (SMILES) | GI50 (LOX IMVI) | GI50 (PC-3) | GI50 (NCI-H522) | GI50 (SF-295) | GI50 (U-251) | GI50 (SNB-19) | GI50 (OVCAR-8) | GI50 (CCRF-CEM) | GI50 (MOLT-4) | GI50 (COLO 205) | GI50 (K562) | GI50 (CAKI-1) | GI50 (HOP-92) | GI50 (HCT-15) [µM] | GI50 (OVCAR-3) | GI50 (HL-60) | GI50 (SR) | GI50 (Hs-578T) | GI50 (NCI-H226) | GI50 (UACC-62)
1 | COc1c(C)c2nc3ccccc3nc2c2c(O)ccnc12 | > 100 µM (inactive) | > 100 µM (inactive) | 71.3 µM (inactive) | 43.2 µM (inactive) | 54.5 µM (inactive) | 36.6 µM (inactive) | 50.5 µM (inactive) | > 100 µM (inactive) | > 100 µM (inactive) | 46.1 µM (inactive) | > 100 µM (inactive) | > 100 µM (inactive) | 36.4 µM (inactive) | > 100 | > 100 µM (inactive) | > 100 µM (inactive) | > 100 µM (inactive) | 16 µM (inactive) | > 100 µM (inactive) | –
2 | COc1ccc(NC(S)=Nc2ccccc2)cc1 | > 100 µM (inactive) | > 100 µM (inactive) | > 100 µM (inactive) | > 100 µM (inactive) | > 100 µM (inactive) | > 100 µM (inactive) | > 100 µM (inactive) | – | – | > 100 µM (inactive) | > 100 µM (inactive) | > 100 µM (inactive) | > 100 µM (inactive) | > 100 | > 100 µM (inactive) | 24.2 µM (inactive) | > 100 µM (inactive) | > 100 µM (inactive) | > 100 µM (inactive) | > 100 µM (inactive)
3 | COc1ccc(OCc2ccc3nc(-c4ccccc4)c(Cl)nc3c2)cc1 | 84.5 µM (inactive) | 40.9 µM (inactive) | 10.7 µM (inactive) | 21.7 µM (inactive) | 12.3 µM (inactive) | 26.5 µM (inactive) | 44.7 µM (inactive) | 15.8 µM (inactive) | 34.4 µM (inactive) | 16.6 µM (inactive) | 0.0889 µM (active) | 22.3 µM (inactive) | 14.5 µM (inactive) | 50.7 | 84.3 µM (inactive) | 12.3 µM (inactive) | 28.2 µM (inactive) | 23.4 µM (inactive) | – | > 10 µM (inactive)
4 | CCNC1=C(NC(=O)c2ccc(OC)cc2)C(=O)c2ccccc2C1=O | – | 32.8 µM (inactive) | 30.7 µM (inactive) | > 100 µM (inactive) | > 100 µM (inactive) | > 100 µM (inactive) | 24.6 µM (inactive) | 48.3 µM (inactive) | 36.1 µM (inactive) | 37 µM (inactive) | > 100 µM (inactive) | – | > 100 µM (inactive) | 48.4 | 24 µM (inactive) | 51.6 µM (inactive) | 56.5 µM (inactive) | > 100 µM (inactive) | > 100 µM (inactive) | 39.4 µM (inactive)
5 | CCOP(=O)(OCC)C1C(CO)OC(n2ccc(=O)[nH]c2=O)C1O (stereo not drawn) | > 100 µM (inactive) | > 100 µM (inactive) | > 100 µM (inactive) | > 100 µM (inactive) | – | > 100 µM (inactive) | > 100 µM (inactive) | > 10 µM (inactive) | > 10 µM (inactive) | – | > 100 µM (inactive) | > 100 µM (inactive) | > 100 µM (inactive) | > 100 | > 100 µM (inactive) | > 100 µM (inactive) | > 100 µM (inactive) | > 100 µM (inactive) | > 100 µM (inactive) | > 100 µM (inactive)
6 | Cc1cc(S(=O)(=O)Nc2nc(N)nc(N3CCOCC3)n2)c(SCC(=O)O)cc1Cl | > 10 µM (inactive) | > 10 µM (inactive) | > 10 µM (inactive) | > 10 µM (inactive) | > 10 µM (inactive) | > 10 µM (inactive) | > 10 µM (inactive) | > 10 µM (inactive) | > 10 µM (inactive) | > 10 µM (inactive) | > 10 µM (inactive) | > 10 µM (inactive) | > 10 µM (inactive) | > 10 | > 10 µM (inactive) | > 10 µM (inactive) | > 10 µM (inactive) | > 10 µM (inactive) | > 10 µM (inactive) | –
7 | COc1ccc(C2CC(c3ccc4ccccc4c3O)=NN2)cc1OC (stereo not drawn) | – | 33.9 µM (inactive) | 40.1 µM (inactive) | 44.8 µM (inactive) | 44.1 µM (inactive) | – | 43.6 µM (inactive) | 14.9 µM (inactive) | 24.7 µM (inactive) | 38.7 µM (inactive) | 21.7 µM (inactive) | > 100 µM (inactive) | > 100 µM (inactive) | 41.7 | 33.1 µM (inactive) | – | 15.6 µM (inactive) | 76.7 µM (inactive) | > 100 µM (inactive) | 42.4 µM (inactive)
8 | C=C(C)C(=O)O[C@H]1[C@H]2[C@H](OC(=O)[C@H]2C)[C@H](O)[C@@H](C)[C@@H]2C=CC(=O)[C@]21C | 2.62 µM (inactive) | 4.51 µM (inactive) | 1.2 µM (inactive) | 4.63 µM (inactive) | 3.16 µM (inactive) | 4.93 µM (inactive) | 1.94 µM (inactive) | 2.07 µM (inactive) | 3 µM (inactive) | 3.27 µM (inactive) | – | 2.55 µM (inactive) | 3.66 µM (inactive) | 2.04 | 4.52 µM (inactive) | 0.692 µM (active) | 1.73 µM (inactive) | 4.9 µM (inactive) | 8.57 µM (inactive) | 1.77 µM (inactive)
9 | O=C(NC(=S)Nc1ccc2c(c1)Sc1ccccc1O2)c1ccc([N+](=O)[O-])cc1 | > 100 µM (inactive) | > 100 µM (inactive) | > 100 µM (inactive) | > 100 µM (inactive) | > 100 µM (inactive) | > 100 µM (inactive) | > 100 µM (inactive) | > 100 µM (inactive) | – | > 100 µM (inactive) | > 100 µM (inactive) | > 100 µM (inactive) | > 100 µM (inactive) | > 100 | > 100 µM (inactive) | > 100 µM (inactive) | > 100 µM (inactive) | > 100 µM (inactive) | > 100 µM (inactive) | > 100 µM (inactive)
10 | CC(=O)OCc1cc(CCC(=O)NCCNc2c3ccccc3nc3ccccc23)cc(COC(C)=O)c1O[Si](C)(C)C(C)(C)C | 1.95 µM (inactive) | 10.5 µM (inactive) | 5.5 µM (inactive) | 2.67 µM (inactive) | 4.88 µM (inactive) | 11.1 µM (inactive) | 13.8 µM (inactive) | 3.7 µM (inactive) | 2.4 µM (inactive) | 4.35 µM (inactive) | 2.65 µM (inactive) | – | 4.89 µM (inactive) | 14.4 | 2 µM (inactive) | 2.87 µM (inactive) | 2.21 µM (inactive) | 3.3 µM (inactive) | 2.19 µM (inactive) | 6.9 µM (inactive)
11 | S=C(NCCc1ccccn1)N/N=C(\c1ccccc1)c1ccccn1 | 0.301 µM (active) | 0.0583 µM (active) | < 0.01 µM (active) | 2.33 µM (inactive) | 0.121 µM (active) | 5.43 µM (inactive) | < 0.01 µM (active) | < 0.01 µM (active) | < 0.01 µM (active) | < 0.01 µM (active) | < 0.01 µM (active) | < 0.01 µM (active) | 1.63 µM (inactive) | 0.0277 | 0.0989 µM (active) | < 0.0359 µM (active) | 1.36 µM (inactive) | 20.5 µM (inactive) | – | 1.03 µM (active)
12 | COc1cc(Nc2cnc3cc(F)c(F)cc3n2)cc(OC)c1 | 67.3 µM (inactive) | > 100 µM (inactive) | 11.4 µM (inactive) | 36 µM (inactive) | 37.9 µM (inactive) | 26.2 µM (inactive) | > 100 µM (inactive) | > 100 µM (inactive) | > 100 µM (inactive) | > 100 µM (inactive) | – | > 100 µM (inactive) | 25.8 µM (inactive) | > 100 | > 100 µM (inactive) | > 100 µM (inactive) | > 100 µM (inactive) | 37.7 µM (inactive) | > 100 µM (inactive) | 18.2 µM (inactive)
13 | Cc1c(S(=O)(=O)N/C(N)=N/c2ccc(Cl)cc2)sc2ccc(Cl)cc12 | 20 µM (inactive) | 14.7 µM (inactive) | 14 µM (inactive) | 20.7 µM (inactive) | 16.3 µM (inactive) | 21.4 µM (inactive) | 19.3 µM (inactive) | – | 28.6 µM (inactive) | 17.2 µM (inactive) | 36.2 µM (inactive) | – | 22.6 µM (inactive) | 19.4 | 18.2 µM (inactive) | 25.8 µM (inactive) | 47.3 µM (inactive) | 21.7 µM (inactive) | 20.4 µM (inactive) | 16.5 µM (inactive)
14 | C=C1C(C(=O)OC)[C@H]1C(=O)OC (stereo partly drawn) | > 100 µM (inactive) | > 100 µM (inactive) | > 100 µM (inactive) | > 100 µM (inactive) | > 100 µM (inactive) | > 100 µM (inactive) | > 100 µM (inactive) | – | > 100 µM (inactive) | > 100 µM (inactive) | – | > 100 µM (inactive) | > 100 µM (inactive) | > 100 | > 100 µM (inactive) | > 100 µM (inactive) | > 100 µM (inactive) | > 100 µM (inactive) | > 100 µM (inactive) | > 100 µM (inactive)
15 | O=C1C(=CNc2ccc([N+](=O)[O-])cc2)C(=O)N(c2ccccc2)C(=O)N1c1ccccc1 | > 100 µM (inactive) | > 100 µM (inactive) | > 100 µM (inactive) | 66.2 µM (inactive) | > 100 µM (inactive) | > 100 µM (inactive) | > 100 µM (inactive) | > 100 µM (inactive) | > 100 µM (inactive) | > 100 µM (inactive) | > 100 µM (inactive) | > 100 µM (inactive) | > 100 µM (inactive) | 76 | 56.6 µM (inactive) | – | > 100 µM (inactive) | > 100 µM (inactive) | > 100 µM (inactive) | 41.3 µM (inactive)
